The source of these data is BindingDB's records for doi:10.1124/mol.63.6.1329 (University of Milan, 2003).

The experiment deals with Neuronal acetylcholine receptor subunit alpha-6 (Gallus gallus, UniProt P49581).
Chain of Neuronal acetylcholine receptor subunit alpha-6 (P49581 whole entry): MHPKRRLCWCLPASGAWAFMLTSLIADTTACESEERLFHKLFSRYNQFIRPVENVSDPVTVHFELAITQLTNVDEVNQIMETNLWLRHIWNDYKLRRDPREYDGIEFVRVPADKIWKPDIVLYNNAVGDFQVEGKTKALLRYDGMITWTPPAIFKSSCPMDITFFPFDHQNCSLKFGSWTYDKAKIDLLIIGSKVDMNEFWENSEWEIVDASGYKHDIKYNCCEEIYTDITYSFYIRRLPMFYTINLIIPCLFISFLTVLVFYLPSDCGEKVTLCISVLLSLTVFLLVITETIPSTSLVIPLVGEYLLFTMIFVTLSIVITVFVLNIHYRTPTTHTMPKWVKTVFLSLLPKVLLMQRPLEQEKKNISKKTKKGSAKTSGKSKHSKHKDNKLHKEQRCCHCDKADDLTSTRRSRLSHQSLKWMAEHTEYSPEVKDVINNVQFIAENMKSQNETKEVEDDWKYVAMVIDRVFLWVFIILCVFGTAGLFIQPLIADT

As to `COc1cc2c3cc1Oc1cc(ccc1O)CC1c4c(cc(OC)c(O)c4Oc4ccc(cc4)CC3N(C)CC2)CC[N+]1(C)C` (configuration not stated) [CAS_64645], affinity was put at a Ki of 7.7 µM.

In turn, `CN1CCC[C@H]1c1cccnc1` [(R,S)-nicotine] returned a Ki of 0.02 µM.

Regarding `COC1CC=C2CCN3CCC4=C(CC(=O)OC4)C23C1` (configuration not stated) [NSC_31762], the inhibition constant Ki was 2.8 µM.

Consider `CC[N+](CC)(CC)CCOc1ccc(C=Cc2ccccc2)cc1` [CAS_17360], for which affinity was put at a Ki of 4.52 µM.

On to `C[N+](C)(C)CCCCCC[N+](C)(C)C` [Hexamethoniumdibromide], for which the Ki was > 10 µM.

Regarding `CC(C)C[C@@H]1NC(=O)[C@H](CC(N)=O)NC(=O)[C@H](CO)NC(=O)[C@H](Cc2cnc[nH]2)NC(=O)[C@H](CCC(=O)O)NC(=O)[C@H](CC(C)C)NC(=O)[C@H](Cc2cnc[nH]2)NC(=O)[C@@H]2CSSC[C@H](NC(=O)CN)C(=O)N[C@@H](CSSC[C@@H](C(N)=O)NC1=O)C(=O)N[C@@H](CO)C(=O)N[C@@H](CC(N)=O)C(=O)N1CCC[C@H]1C(=O)N[C@@H](C(C)C)C(=O)N2` [Gly-L-Cys(1)-L-Cys(2)-L-Ser-L-Asn-L-Pro-L-Val-L-Cys(1)-L-His-L-Leu-L-Glu-L-His-L-Ser-L-Asn-L-Leu-L-Cys(2)-NH2], the Ki was determined as 0.066 µM. This counts as double-digit nanomolar.

For the compound `C[N+](C)(C)CCCCCCCCCC[N+](C)(C)C` [Decamethonium Iodide], the Ki is > 10 µM.
